# Tested on: cortical spreading depression (CSD) in rats
# Assay: KCl-induced cortical spreading depression (CSD) animal model of migraine; cerebral blood flow and DC potential measurement
# Type: in vivo, Wistar rats
# Details: for number of DC-potential events: KCl-induced CSD (FIG. 3)
# Description: All animal experiments were conducted in accordance with the National Institutes of Health (NIH) guidelines for the protection and use of laboratory animals and were approved by the State National Animal Experiment Board of Finland. A total of 48 adult male Wistar rats weighing 250 to 350 g were purchased from Charles River (Germany) and used in this experiment. The animals were raised at ambient temperature (22±1° C.) under an environment in which food and water could be consumed arbitrarily and lighting was controlled (illuminated from 7 am to 8 pm). The animals were divided into the following four groups: • Twelve rats as a negative control group which were intraperitoneally administered 30% PEG400 (5 ml/kg) only, the vehicle of administration, once a day for three weeks • Twelve rats which were intraperitoneally administered the test compound at a dose of 10 mg/kg once a day for three weeks • Twelve rats which were intraperitoneally administered the test compound at a dose of 30 mg/kg once a day for three weeks • Twelve rats as a positive control which were intraperitoneally administered Topiramate at a dose of 80 mg/kg once a day for three weeks
# On the last day of the three weeks of administration of the compound and the vehicle (30% PEG 400), the rats were anesthetized with 5% isoflurane (70% N2O and 30% O2 included, dose rate of 300 ml/min) and then were fixed to a stereotactic frame to perform the following surgery. During surgery, the concentration of anesthetic was reduced to 1 to 1.5%, and the rectal temperature was maintained at 37.0±1.0° C. using the homeothermic blanket system.
# The skin of the rat head was incised and tilted to both sides, and the right hemisphere of the open skull was drilled using a drill to make three holes, the positions of which are as follows and are indicated by “mm” distance from the bregma; (1) in the occipital cortex, 4.5 at the rear and 2.0 at the lateral; (2) in the parietal cortex, 0.5 at the rear and 2.0 at the lateral; (3) in the frontal cortex, 2 at the front and 2 at the lateral. A laser-Doppler flow probe (Oxyflow, Oxford Optronics, UK) for monitoring the cerebral blood flow (CBF) and an invasive Ag/AgCl electrode for measuring the direct current (DC) potential change were placed on the uninjured dura of the holes drilled in the parietal and frontal cortex and within the cortex, respectively.
# The laser-Doppler flow probes were placed in areas with no large pial and dural blood vessels to minimize the interference of the large vessels to the signal. For the measurement of the DC potential difference, a reference electrode was fixed to the neck. The dura on the occipital cortex was carefully removed and care was taken to minimize bleeding. After surgery, the cortical area was restored by washing with saline for 15 minutes. Sphere-shaped (2 mm diameter) cotton wool was wetted with 1 M KCl solution and placed on the pia, and 5 μl of KCl solution was added thereto every 15 minutes to prevent drying. The occurrence of KCl-induced cortical spreading depression (CSD) was measured for 2 hours.
# Cerebral blood flow (CBF) and DC potential were continuously monitored starting 5 minutes before KCl treatment. The last drug administration took place 30 minutes before the KCl solution treatment. The parameters analyzed were (1) the number of events of DC potential, the duration of the event, the magnitude of amplitude, and (2) the number of events of cerebral blood flow change and the size of the magnitude of change. […] Statistical analysis was performed using unpaired t-test on StatsDirect statistical software.
Compound,"number of DC-potential events (30 mg/kg i.p. once a day for three weeks, compared to vehicle treated group)","number of events of increased cerebral blood flow (CBF) (30 mg/kg i.p. once a day for three weeks, compared to vehicle treated group, KCl-induced CSD measured for 2 hours (FIG. 1))","degree of cerebral blood flow increase (i.p. once a day for three weeks, compared to vehicle, KCl-induced CSD (FIG. 2))","magnitude of amplitude of the DC-potential event (i.p. once a day for three weeks, compared to vehicle, KCl-induced CSD (FIG. 4))","duration of the DC-potential event (i.p. once a day for three weeks, compared to vehicle, KCl-induced CSD (FIG. 5))","number of events of increased cerebral blood flow (CBF) (80 mg/kg i.p. once a day for three weeks, positive control, KCl-induced CSD (FIG. 1))","number of DC-potential events (80 mg/kg i.p. once a day for three weeks, positive control)"
NC(=O)O[C@@H](Cn1ncnn1)c1ccccc1Cl [test compound],significantly reduced,significantly reduced,no significant effect,no significant effect,no significant effect,–,–
"CC1(C)O[C@@H]2[C@@H](CO[C@@]3(COS(N)(=O)=O)OC(C)(C)O[C@@H]23)O1 [Topiramate, reference compound]",–,–,–,–,–,reduction effect,effect shown
